Reference: ChEMBL document CHEMBL1255246, “Systemic pharmacokinetics of rifaximin in volunteers with shigellosis” (Antimicrob Agents Chemother, 2008)

Assays:
Type in all cases: ADME, organism-based
[1] = Cmax in Shigella flexneri challenged human at […], po administered every 8 hrs for three days measured after third dose; design: route oral; details: in vivo
[2] = Tmax in Shigella flexneri challenged human at […], po administered every 8 hrs for three days measured after third dose; design: route oral; details: in vivo
[3] = AUC (0 to last) in Shigella flexneri challenged human at […], po administered every 8 hrs for three days measured after last dose; design: time 0 - last, route oral; details: plasma
[4] = Drug level in healthy human urine at 400 mg single dose; details: read-out: Drug uptake
[5] = Drug level in healthy human feces at 400 mg single dose; details: faeces, read-out: Drug uptake
[6] = Oral bioavailability in human at 200 mg three times a day for 3 days; details: in vivo
[7] = AUC (0 to last) in Shigella flexneri challenged human at […], po administered every 8 hrs for three days measured after third dose; design: route oral, time 0 - last; details: plasma
[8] = Tmax in Shigella flexneri challenged human at […], po administered every 8 hrs for three days measured after last dose; design: route oral; details: in vivo
[9] = Cmax in Shigella flexneri challenged human at […], po administered every 8 hrs for three days measured after last dose; design: route oral; details: in vivo

Question: Which Cmax [1] does the source give for `CO[C@H]1/C=C/O[C@@]2(C)Oc3c(C)c(O)c4c(O)c(c5c(nc6cc(C)ccn65)c4c3C2=O)NC(=O)/C(C)=C\C=C\[C@H](C)[C@H](O)[C@@H](C)[C@@H](O)[C@@H](C)[C@H](OC(C)=O)[C@@H]1C` [RIFAXIMIN] here?
Answer: 1.63 ng/mL

Question: What about the Tmax [2] of the same compound?
Answer: 2.77 h

Question: And the AUC(0-t) at 8 h [3]?
Answer: 7.83 ng·h/mL

Question: What about the dose excreted [4] of the same compound?
Answer: 0.32%

Question: What about the dose excreted [5] of the same compound?
Answer: 97%

Question: What about the bioavailability [6] of the same compound?
Answer: < 0.4%

Question: And the AUC(0-t) at 8 h [7]?
Answer: 6.95 ng·h/mL

Question: And the Tmax [8]?
Answer: 2.11 h

Question: What about the Cmax [9] of the same compound?
Answer: 1.23 ng/mL
